Experimental data taken from the supplement of paper PMC10307832.

Legend:
Experiment in all cases: relative viability (nuclei count vs DMSO), 5 days (fraction); higher = more cells survive
Zosuquidar + Alpelisib = compound: O[C@@H](COc1cccc2ncccc12)CN1CCN([C@@H]2c3ccccc3[C@@H]3[C@H](c4ccccc42)C3(F)F)CC1 [Zosuquidar] + Cc1nc(NC(=O)N2CCC[C@H]2C(N)=O)sc1-c1ccnc(C(C)(C)C(F)(F)F)c1 [Alpelisib] (partner 2 µM)
Outline: (§1)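 After 5 days of treatment, lung cancer cells in 1536-well plates were fixed and stained in a single step (final 0.05% Triton X-100, 1% formaldehyde, 1 ug/ml Hoechst) and their nuclei counted on 4× images. Treatment had been applied by pin tool the day after seeding as one drug alone or as a fixed anchor-drug dose with five library-drug doses (not always all listed) in √10 steps. Relative viability is the nuclei count of treated wells divided by that of vehicle wells, and values are medians of duplicate plates.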

Zosuquidar + OSI-027 = compound: O[C@@H](COc1cccc2ncccc12)CN1CCN([C@@H]2c3ccccc3[C@@H]3[C@H](c4ccccc42)C3(F)F)CC1 [Zosuquidar] + COc1cccc2cc(-c3nc([C@H]4CC[C@H](C(=O)O)CC4)n4ncnc(N)c34)[nH]c12 [OSI-027] (partner 0.5 µM)
Outline: as §1

Zosuquidar + Crizotinib = compound: O[C@@H](COc1cccc2ncccc12)CN1CCN([C@@H]2c3ccccc3[C@@H]3[C@H](c4ccccc42)C3(F)F)CC1 [Zosuquidar] + C[C@@H](Oc1cc(-c2cnn(C3CCNCC3)c2)cnc1N)c1c(Cl)ccc(F)c1Cl [Crizotinib] (partner 1 µM)
Outline: as §1

Zosuquidar + Foretinib = compound: O[C@@H](COc1cccc2ncccc12)CN1CCN([C@@H]2c3ccccc3[C@@H]3[C@H](c4ccccc42)C3(F)F)CC1 [Zosuquidar] + COc1cc2c(Oc3ccc(NC(=O)C4(C(=O)Nc5ccc(F)cc5)CC4)cc3F)ccnc2cc1OCCCN1CCOCC1 [Foretinib] (partner 0.25 µM)
Outline: as §1

| Cell Line | relative viability (Zosuquidar + Alpelisib; first compound 0.01 µM) | relative viability (Zosuquidar + Alpelisib; first compound 0.03162 µM) | relative viability (Zosuquidar + Alpelisib; first compound 0.3162 µM) | relative viability (Zosuquidar + Alpelisib; first compound 1 µM) | relative viability (Zosuquidar + OSI-027; first compound 0.01 µM) | relative viability (Zosuquidar + OSI-027; first compound 0.03162 µM) | relative viability (Zosuquidar + OSI-027; first compound 0.1 µM) | relative viability (Zosuquidar + OSI-027; first compound 0.3162 µM) | relative viability (Zosuquidar + OSI-027; first compound 1 µM) | relative viability (Zosuquidar + Crizotinib; first compound 0.01 µM) | relative viability (Zosuquidar + Crizotinib; first compound 0.03162 µM) | relative viability (Zosuquidar + Crizotinib; first compound 0.3162 µM) | relative viability (Zosuquidar + Crizotinib; first compound 1 µM) | relative viability (Zosuquidar + Foretinib; first compound 0.01 µM) | relative viability (Zosuquidar + Foretinib; first compound 0.03162 µM) | relative viability (Zosuquidar + Foretinib; first compound 0.1 µM) | relative viability (Zosuquidar + Foretinib; first compound 0.3162 µM) | relative viability (Zosuquidar + Foretinib; first compound 1 µM) | relative viability (Zosuquidar + Alpelisib; first compound 0.1 µM) | relative viability (Zosuquidar + Crizotinib; first compound 0.1 µM) |
| --- | --- | --- | --- | --- | --- | --- | --- | --- | --- | --- | --- | --- | --- | --- | --- | --- | --- | --- | --- | --- |
| NCI-H650 | 1.15 | 0.94 | 1.09 | 1.28 | 0.514 | 0.477 | 0.433 | 0.553 | 0.576 | 0.641 | 0.762 | 0.731 | 0.721 | 1.03 | 0.984 | 0.908 | 1.15 | 0.939 | – | – |
| NCI-H661 | 0.48 | 0.621 | 0.614 | 0.703 | 0.654 | 0.67 | 0.596 | 0.714 | 0.695 | 0.993 | 1.07 | 1.05 | 0.906 | 1.05 | 0.895 | 0.885 | 1.06 | 0.988 | 0.408 | – |
| NCI-H727 | 0.669 | 0.631 | 0.588 | 0.577 | 0.622 | 0.538 | 0.343 | 0.783 | 0.705 | 0.905 | 0.925 | 0.798 | 0.925 | 0.774 | 0.79 | 0.774 | 0.855 | 0.908 | 0.536 | 0.732 |
| NCI-H838 | 0.995 | 0.994 | 1.07 | 1.07 | 0.411 | 0.323 | 0.303 | 0.38 | 0.41 | 0.802 | 0.789 | 0.901 | 0.779 | 1.07 | 1 | 0.995 | 1.11 | 1.07 | 0.822 | 0.849 |
| NCI-H1355 | 0.851 | 0.801 | 0.971 | 0.87 | 0.395 | 0.409 | 0.299 | 0.449 | 0.386 | 1.05 | 0.997 | 1.15 | 1.05 | 0.951 | 0.989 | 0.9 | 1.02 | 0.923 | 0.596 | 0.987 |
| NCI-H1437 | 0.966 | 0.961 | 1.01 | 0.994 | 0.865 | 0.889 | 0.765 | 1.12 | 0.871 | 0.868 | 0.994 | 0.911 | 0.897 | 1.28 | 1.24 | 1.16 | 1.3 | 1.31 | 0.935 | 0.92 |
| NCI-H1563 | 0.935 | 0.988 | 0.988 | 0.921 | 0.751 | 0.663 | 0.753 | 0.762 | 0.827 | 0.734 | 0.904 | 0.828 | 0.838 | 1.04 | 0.9 | 0.967 | 1.1 | 0.932 | 0.904 | 0.84 |
| NCI-H1651 | 1.05 | 1.02 | 0.915 | 0.975 | 0.78 | 0.694 | 0.633 | 0.657 | 0.725 | 0.849 | 0.965 | 0.869 | 0.87 | 0.763 | 0.845 | 0.703 | 0.863 | 0.778 | 0.856 | 0.854 |
